Assay results as given in PMC5384001 (Scientific Reports, 2017).
Residue numbers refer to the chain shown, from its start.

How the values were obtained:
[1] = molecular target: T1, GluD2-Lc(Y496F) (Rattus norvegicus, UniProt Q63226, A654T/Y496F); experiment: Two-electrode voltage clamp in Xenopus oocytes, inhibition of spontaneous currents; assay type: cell-based; settings: fraction of spontaneous current inhibited by saturating D-serine
T1 construct: the function of full-length receptors as well, we introduced them into the GluD2 lurcher mutant (GluD2-Lc); expressed in transfected cells; host or cells: Xenopus laevis oocytes injected with cRNA
T1 sequence (Q63226 24-1007 Y496F/A654T): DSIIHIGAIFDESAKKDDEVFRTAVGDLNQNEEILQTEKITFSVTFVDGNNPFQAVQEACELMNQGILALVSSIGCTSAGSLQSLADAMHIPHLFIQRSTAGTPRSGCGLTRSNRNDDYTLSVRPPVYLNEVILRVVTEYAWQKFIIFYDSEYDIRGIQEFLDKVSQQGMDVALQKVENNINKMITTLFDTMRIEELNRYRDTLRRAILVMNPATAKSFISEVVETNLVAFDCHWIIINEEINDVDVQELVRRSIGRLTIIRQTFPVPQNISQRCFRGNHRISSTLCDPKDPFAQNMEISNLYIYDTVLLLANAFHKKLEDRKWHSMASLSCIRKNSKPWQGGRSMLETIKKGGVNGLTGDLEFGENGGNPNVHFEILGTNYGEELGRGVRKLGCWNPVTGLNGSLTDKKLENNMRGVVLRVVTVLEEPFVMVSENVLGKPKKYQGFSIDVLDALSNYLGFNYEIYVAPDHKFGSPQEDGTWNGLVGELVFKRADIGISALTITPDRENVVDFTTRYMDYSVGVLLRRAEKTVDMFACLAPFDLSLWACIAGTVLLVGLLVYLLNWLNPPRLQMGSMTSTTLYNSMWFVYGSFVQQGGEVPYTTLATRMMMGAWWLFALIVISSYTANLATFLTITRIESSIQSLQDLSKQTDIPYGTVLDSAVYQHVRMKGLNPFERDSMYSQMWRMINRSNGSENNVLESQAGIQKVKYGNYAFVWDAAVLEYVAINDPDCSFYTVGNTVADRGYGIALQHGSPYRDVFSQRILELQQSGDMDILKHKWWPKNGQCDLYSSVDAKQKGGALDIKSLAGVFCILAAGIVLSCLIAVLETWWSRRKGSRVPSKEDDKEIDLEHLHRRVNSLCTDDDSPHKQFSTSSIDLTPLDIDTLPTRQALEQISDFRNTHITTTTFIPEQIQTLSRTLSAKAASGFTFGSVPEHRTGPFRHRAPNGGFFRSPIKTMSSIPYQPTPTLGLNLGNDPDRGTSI

[2] = molecular target: T2, GluD2-Lc(S544G)-(HS2)GluN1 (Rattus norvegicus, UniProt Q63226, A654T/A766F/D767R/N763E/R768S/S544G/T764L/V761T/V765F); experiment: as above; assay type: cell-based; settings: fraction of spontaneous current inhibited by saturating D-serine
T2 construct: the function of full-length receptors as well, we introduced them into the GluD2 lurcher mutant (GluD2-Lc); expressed in transfected cells; host or cells: Xenopus laevis oocytes injected with cRNA
T2 sequence (Q63226 24-1007 S544G/A654T/V761T/N763E/T764L/V765F/A766F/D767R/R768S): T1 sequence (Q63226 24-1007 Y496F/A654T) with F473Y, S521G, V738T, N740E, T741L, V742F, A743F, D744R, R745S

N[C@H](CO)C(=O)O [D-serine]
D-serine efficacy Mean ± SEM [1]: 43.5 ± 2.0%
D-serine efficacy Mean ± SEM [2]: 40.6 ± 0.5%
